# Experiments:
# Experiment in all cases: relative viability (nuclei count vs DMSO), 5 days (fraction); higher = more cells survive
# NCI-H2023 = test system: NCI-H2023
# Outline: (§1)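 Lung cancer cell lines were seeded in 1536-well plates and dosed by pin tool the next day, with either a single drug or a fixed anchor-drug dose combined with five library-drug doses (not always all listed) spaced in √10 steps. Five days later, one step fixed the cells and stained their nuclei (final 0.05% Triton X-100, 1% formaldehyde, 1 ug/ml Hoechst), and nuclei were counted on 4× images. Relative viability is the nuclei count in treated wells divided by the count in vehicle wells, and each value is the median of duplicate plates.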
# NCI-H358 = test system: NCI-H358
# Outline: as §1
# NCI-H1975 = test system: NCI-H1975
# Outline: as §1
# COR-L 105 = test system: COR-L 105
# Outline: as §1
# NCI-H1944 = test system: NCI-H1944
# Outline: as §1
# LOU-NH91 = test system: LOU-NH91
# Outline: as §1
# NCI-H1993 = test system: NCI-H1993
# Outline: as §1
# LXF-289 = test system: LXF-289
# Outline: as §1
# NCI-H1915 = test system: NCI-H1915
# Outline: as §1
# HCC-44 = test system: HCC-44
# Outline: as §1
# LCLC-103H = test system: LCLC-103H
# Outline: as §1
# SW 900 = test system: SW 900
# Outline: as §1
# NCI-H1793 = test system: NCI-H1793
# Outline: as §1
# NCI-H2170 = test system: NCI-H2170
# Outline: as §1
# NCI-H520 = test system: NCI-H520
# Outline: as §1
# NCI-H1792 = test system: NCI-H1792
# Outline: as §1
# HCC-827 = test system: HCC-827
# Outline: as §1
# A-427 = test system: A-427
# Outline: as §1
# H3255 = test system: H3255
# Outline: as §1
# SK-MES-1 = test system: SK-MES-1
# Outline: as §1
# NCI-H522 = test system: NCI-H522
# Outline: as §1
# SW 1573 = test system: SW 1573
# Outline: as §1
# NCI-H2087 = test system: NCI-H2087
# Outline: as §1
smiles,measurement,setting,value
Cc1csc(=NC2CCCCC2)n1/N=C/c1ccc(O)c(O)c1O [MIM1] + Nc1nc2[nH]cc(CCc3ccc(C(=O)N[C@@H](CCC(=O)O)C(=O)O)cc3)c2c(=O)[nH]1 [Pemetrexed] (partner 0.2 µM),relative viability,NCI-H2023; first compound 0.2 µM,0.235
same,relative viability,NCI-H2023; first compound 0.6325 µM,0.337
same,relative viability,NCI-H2023; first compound 2 µM,0.219
same,relative viability,NCI-H2023; first compound 6.325 µM,0.098
same,relative viability,NCI-H2023; first compound 20 µM,0.0763
same,relative viability,NCI-H358; first compound 0.2 µM,0.181
same,relative viability,NCI-H358; first compound 0.6325 µM,0.17
same,relative viability,NCI-H358; first compound 2 µM,0.182
same,relative viability,NCI-H358; first compound 6.325 µM,0.152
same,relative viability,NCI-H358; first compound 20 µM,0.144
same,relative viability,NCI-H1975; first compound 0.2 µM,0.289
same,relative viability,NCI-H1975; first compound 0.6325 µM,0.317
same,relative viability,NCI-H1975; first compound 2 µM,0.28
same,relative viability,NCI-H1975; first compound 6.325 µM,0.223
same,relative viability,NCI-H1975; first compound 20 µM,0.187
same,relative viability,COR-L 105; first compound 0.2 µM,1.02
same,relative viability,COR-L 105; first compound 0.6325 µM,1.13
same,relative viability,COR-L 105; first compound 2 µM,0.882
same,relative viability,COR-L 105; first compound 6.325 µM,0.933
same,relative viability,COR-L 105; first compound 20 µM,1.04
same,relative viability,NCI-H1944; first compound 0.2 µM,0.586
same,relative viability,NCI-H1944; first compound 0.6325 µM,0.613
same,relative viability,NCI-H1944; first compound 2 µM,0.478
same,relative viability,NCI-H1944; first compound 6.325 µM,0.381
same,relative viability,NCI-H1944; first compound 20 µM,0.233
same,relative viability,LOU-NH91; first compound 0.2 µM,0.335
same,relative viability,LOU-NH91; first compound 0.6325 µM,0.466
same,relative viability,LOU-NH91; first compound 2 µM,0.383
same,relative viability,LOU-NH91; first compound 6.325 µM,0.403
same,relative viability,LOU-NH91; first compound 20 µM,0.285
same,relative viability,NCI-H1993; first compound 0.2 µM,0.572
same,relative viability,NCI-H1993; first compound 0.6325 µM,0.553
same,relative viability,NCI-H1993; first compound 2 µM,0.596
same,relative viability,NCI-H1993; first compound 6.325 µM,0.481
same,relative viability,NCI-H1993; first compound 20 µM,0.384
same,relative viability,LXF-289; first compound 0.2 µM,0.9
same,relative viability,LXF-289; first compound 0.6325 µM,0.737
same,relative viability,LXF-289; first compound 2 µM,0.891
same,relative viability,LXF-289; first compound 6.325 µM,0.715
same,relative viability,LXF-289; first compound 20 µM,0.453
same,relative viability,NCI-H1915; first compound 0.2 µM,0.501
same,relative viability,NCI-H1915; first compound 0.6325 µM,0.42
same,relative viability,NCI-H1915; first compound 2 µM,0.487
same,relative viability,NCI-H1915; first compound 6.325 µM,0.329
same,relative viability,NCI-H1915; first compound 20 µM,0.335
same,relative viability,HCC-44; first compound 0.2 µM,0.689
same,relative viability,HCC-44; first compound 0.6325 µM,0.566
same,relative viability,HCC-44; first compound 2 µM,0.601
same,relative viability,HCC-44; first compound 6.325 µM,0.468
same,relative viability,HCC-44; first compound 20 µM,0.401
same,relative viability,LCLC-103H; first compound 0.2 µM,0.413
same,relative viability,LCLC-103H; first compound 0.6325 µM,0.499
same,relative viability,LCLC-103H; first compound 2 µM,0.456
same,relative viability,LCLC-103H; first compound 6.325 µM,0.466
same,relative viability,LCLC-103H; first compound 20 µM,0.393
same,relative viability,SW 900; first compound 0.2 µM,0.504
same,relative viability,SW 900; first compound 0.6325 µM,0.465
same,relative viability,SW 900; first compound 2 µM,0.499
same,relative viability,SW 900; first compound 6.325 µM,0.349
same,relative viability,SW 900; first compound 20 µM,0.178
same,relative viability,NCI-H1793; first compound 0.2 µM,0.937
same,relative viability,NCI-H1793; first compound 2 µM,1.13
same,relative viability,NCI-H1793; first compound 6.325 µM,0.848
same,relative viability,NCI-H1793; first compound 20 µM,0.936
same,relative viability,NCI-H2170; first compound 0.2 µM,0.265
same,relative viability,NCI-H2170; first compound 0.6325 µM,0.252
same,relative viability,NCI-H2170; first compound 2 µM,0.247
same,relative viability,NCI-H2170; first compound 6.325 µM,0.254
same,relative viability,NCI-H2170; first compound 20 µM,0.215
same,relative viability,NCI-H520; first compound 0.2 µM,0.693
same,relative viability,NCI-H520; first compound 0.6325 µM,0.722
same,relative viability,NCI-H520; first compound 2 µM,0.752
same,relative viability,NCI-H520; first compound 6.325 µM,0.547
same,relative viability,NCI-H520; first compound 20 µM,0.306
same,relative viability,NCI-H1792; first compound 0.2 µM,0.682
same,relative viability,NCI-H1792; first compound 0.6325 µM,0.644
same,relative viability,NCI-H1792; first compound 2 µM,1.02
same,relative viability,NCI-H1792; first compound 6.325 µM,0.716
same,relative viability,NCI-H1792; first compound 20 µM,0.685
same,relative viability,HCC-827; first compound 0.2 µM,0.275
same,relative viability,HCC-827; first compound 0.6325 µM,0.249
same,relative viability,HCC-827; first compound 2 µM,0.263
same,relative viability,HCC-827; first compound 6.325 µM,0.246
same,relative viability,HCC-827; first compound 20 µM,0.167
same,relative viability,A-427; first compound 0.2 µM,1.02
same,relative viability,A-427; first compound 0.6325 µM,0.947
same,relative viability,A-427; first compound 2 µM,0.989
same,relative viability,A-427; first compound 6.325 µM,0.901
same,relative viability,A-427; first compound 20 µM,0.343
same,relative viability,H3255; first compound 0.2 µM,0.539
same,relative viability,H3255; first compound 0.6325 µM,0.553
same,relative viability,H3255; first compound 2 µM,0.532
same,relative viability,H3255; first compound 6.325 µM,0.556
same,relative viability,H3255; first compound 20 µM,0.312
same,relative viability,SK-MES-1; first compound 0.2 µM,0.962
same,relative viability,SK-MES-1; first compound 0.6325 µM,0.907
same,relative viability,SK-MES-1; first compound 2 µM,0.796
same,relative viability,SK-MES-1; first compound 6.325 µM,0.56
same,relative viability,SK-MES-1; first compound 20 µM,0.298
same,relative viability,NCI-H522; first compound 0.2 µM,1.09
same,relative viability,NCI-H522; first compound 0.6325 µM,1.31
same,relative viability,NCI-H522; first compound 2 µM,0.951
same,relative viability,NCI-H522; first compound 6.325 µM,1.01
same,relative viability,NCI-H522; first compound 20 µM,0.481
same,relative viability,SW 1573; first compound 0.2 µM,0.851
same,relative viability,SW 1573; first compound 0.6325 µM,0.93
same,relative viability,SW 1573; first compound 2 µM,0.877
same,relative viability,SW 1573; first compound 6.325 µM,0.791
same,relative viability,SW 1573; first compound 20 µM,0.18
same,relative viability,NCI-H2087; first compound 0.2 µM,0.593
same,relative viability,NCI-H2087; first compound 0.6325 µM,0.724
same,relative viability,NCI-H2087; first compound 2 µM,0.729
same,relative viability,NCI-H2087; first compound 6.325 µM,0.601
same,relative viability,NCI-H2087; first compound 20 µM,0.644
